# Measured values taken from patent US20080214480A1, “Method for Treating Sickle Cell Disease and Sickle Cell Disease Sequalae” (TRF Pharma, Inc., priority 2005, published 2008).
# How the values were obtained:
# HUVEC cells = settings: Barabino et al, Blood 1999; cited from earlier work
# transplanted livers = settings: livers pretreated with PPS; cited from earlier work
# [1] = system: adhesion of RBC from sickle cell patients (ssRBC) to human umbilical vein endothelial cells (HUVEC); test: Variable height flow chamber adhesion of ssRBC to endothelial cells, Example 4; format: cell-based; settings: HUVEC stimulated with thrombin or TNF-alpha, treated thirty minutes at 37° C., versus control preparations
# Method: The effects of PPS or sulodexide on sickle cell erythrocyte adhesion are evaluated by in vitro study according to procedures similar to those described in Telen et al. (Blood, 2004, 104:3774); Niihara et al (BMC Blood Disorders, 2005, 5:4); and Barabino et al (Blood, 1999, 93:1422-29). In brief, a variable height flow chamber is used to quantitate the effects of PPS on the adhesion of RBC from sickle cell patients (ssRBC) to endothelial cells. Human umbilical vein endothelial cells (HUVEC) are grown on gelatin coated glass slides until confluent. The HUVEC's are then stimulated with thrombin or TNF-alpha and washed with PBS with Ca^+2 and Mg^+2. Following activation, the endothelial cells are treated with various concentrations of PPS for thirty minutes at 37° C. The endothelial cells are then washed in PBS with Ca^+2 and Mg^+2, mounted onto the variable height flow chamber where the final testing unit is assembled. […] Adhesion is quantitated by counting the adherent ssRBCs in a field in 7 different locations along the slide in the direction of the flow. The height of the chamber at each of these 7 locations is measured so that the shear stress can be calculated; note that the typical range seen is between 0.3 to 2.7 dynes/cm^2. […]
# DU145 = settings: DU145, dependent on anchorage; cited from earlier work
# tumor cell adhesion = settings: direct measurements, Schamhart; cited from earlier work
# Human SCD patients = test: Computer-assisted intravital microscopy (CAIM) of conjunctival microcirculation, Example 1; format: in vivo; settings: SCD patients hospitalized for VOC, high dose, relative to placebo group
# Text: Human SCD patients are enrolled to be studied by a non-invasive videotape of the conjunctival microcirculation. Recently, microvascular characteristics in SCD patients have been quantified using computer-assisted intravital microscopy (CAIM), a novel technology involving intravital video-microscopy coupled with imaging protocols, to study and analyze steady-state and vaso-occlusive crisis (VOC) microvascular characteristics in SCD (Cheung et al, Blood. 2002; 99:3999). During VOC, decreases in vascularity (“blanching”) occur as a result of vasoconstriction and diminished blood flow through the microvessels. […] The microvascular changes during VOC are transient and revert to steady-state values after crisis resolution. These specific reversals in VOC are used as the basis for this study to evaluate and quantify the effects of PPS on the microcirculation.
# Because of the unique shape and form of conjunctival vessels, each vessel is easily identified and located to be re-studied. Each vessel serves as its own reference (control) to evaluate and quantify microvascular changes. […] CAIM is used to non-invasively videotape and longitudinally quantify the changes in venular diameter and red-cell velocity pre- and post-treatment of PPS, sulodexide or placebo at various time points post treatment.
# PC-3 = settings: PC-3, not dependent on anchorage; cited from earlier work
# [2] = Wardle 1992; cited from earlier work
# LNCaP = settings: dependent on anchorage; cited from earlier work
# [3] = system: patients with sickle cell crises; settings: four patients, 12-month self-administered intravenous minidose heparin vs 12 months off heparin; cited from earlier work
# human endothelial cells = settings: Gupta et al; cited from earlier work
# immobilized P-selectin = target: T1, immobilized P-selectin (Homo sapiens, UniProt P16109); settings: Matsui, Blood 2002; cited from earlier work
# T1 sequence (P16109 42-830): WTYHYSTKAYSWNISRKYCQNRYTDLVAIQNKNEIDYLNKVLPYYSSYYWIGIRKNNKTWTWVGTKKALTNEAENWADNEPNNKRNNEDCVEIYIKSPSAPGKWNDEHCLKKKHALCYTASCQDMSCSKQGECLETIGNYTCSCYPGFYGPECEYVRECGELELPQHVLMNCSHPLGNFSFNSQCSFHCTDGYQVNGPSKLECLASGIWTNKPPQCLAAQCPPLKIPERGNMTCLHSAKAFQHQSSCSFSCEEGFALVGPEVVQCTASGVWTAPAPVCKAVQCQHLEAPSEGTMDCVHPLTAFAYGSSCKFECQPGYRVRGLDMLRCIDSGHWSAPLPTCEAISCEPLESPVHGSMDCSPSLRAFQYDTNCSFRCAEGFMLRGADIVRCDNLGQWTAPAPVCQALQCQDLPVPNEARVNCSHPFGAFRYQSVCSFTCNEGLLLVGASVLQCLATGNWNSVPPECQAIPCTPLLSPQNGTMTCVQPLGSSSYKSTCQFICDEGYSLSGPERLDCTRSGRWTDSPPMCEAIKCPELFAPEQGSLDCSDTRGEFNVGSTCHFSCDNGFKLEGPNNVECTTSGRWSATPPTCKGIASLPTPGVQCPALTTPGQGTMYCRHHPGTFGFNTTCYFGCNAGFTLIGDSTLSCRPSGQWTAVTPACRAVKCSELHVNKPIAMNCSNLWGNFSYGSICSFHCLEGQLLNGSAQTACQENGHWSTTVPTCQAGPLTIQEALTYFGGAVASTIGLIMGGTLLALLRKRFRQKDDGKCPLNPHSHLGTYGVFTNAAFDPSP
substance,measurement,setting,value
chondroitin sulfate,sickle cell adhesion to HUVEC cells,HUVEC cells,inhibited
Pentosan polysulfate [PPS],leukocytes adhering to the vascular wall,transplanted livers,significantly fewer
same,reperfusion edema,transplanted livers,no reperfusion edema
same,percentage of adherent cells,[1],reduction
same,growth and migration of tumor cell line,DU145,inhibited
same,tumor cell adhesion,tumor cell adhesion,inhibited
same,microvascular flow (venular diameter and red-cell velocity by CAIM),Human SCD patients,significant improvement in microvascular flow
same,growth and migration of tumor cell line,PC-3,no effect
same,anticoagulant potency relative to heparin,[2],about one-fifteenth
same,growth and migration of tumor cell line,LNCaP,inhibited
heparin sulfate,sickle cell adhesion to HUVEC cells,HUVEC cells,did not
heparin,pain reduction,[3],improvement in pain reduction
same,sickle erythrocyte adhesion to human endothelial cells in vitro,human endothelial cells,inhibited
same,in vitro flow adhesion of sickle cells to immobilized P-selectin,immobilized P-selectin,inhibited
same,sickle cell adhesion to HUVEC cells,HUVEC cells,inhibited
low molecular weight heparin,in vitro flow adhesion of sickle cells to immobilized P-selectin,immobilized P-selectin,not low molecular weight heparin proved to be effective
dextran sulfate,sickle cell adhesion to HUVEC cells,HUVEC cells,inhibited
